Source: ChEMBL document CHEMBL1201862, “PubChem BioAssay data set” (2004)
Activity calls are given as the source filed them. Cut-off read from the data, not from the text of the source: actives have a measured IC50 and inactives only a lower limit.

Molecular target: Envelope glycoprotein gp160 (Human immunodeficiency virus 1, UniProt Q6QLK5)
Experiment: cell-free HIV fusion peptide-binding blockers – biochemical, uHTS, fluorescence dequenching, […] (AID 1986)

Envelope glycoprotein gp160, sequence (Q6QLK5 whole entry, the tested form may be a part): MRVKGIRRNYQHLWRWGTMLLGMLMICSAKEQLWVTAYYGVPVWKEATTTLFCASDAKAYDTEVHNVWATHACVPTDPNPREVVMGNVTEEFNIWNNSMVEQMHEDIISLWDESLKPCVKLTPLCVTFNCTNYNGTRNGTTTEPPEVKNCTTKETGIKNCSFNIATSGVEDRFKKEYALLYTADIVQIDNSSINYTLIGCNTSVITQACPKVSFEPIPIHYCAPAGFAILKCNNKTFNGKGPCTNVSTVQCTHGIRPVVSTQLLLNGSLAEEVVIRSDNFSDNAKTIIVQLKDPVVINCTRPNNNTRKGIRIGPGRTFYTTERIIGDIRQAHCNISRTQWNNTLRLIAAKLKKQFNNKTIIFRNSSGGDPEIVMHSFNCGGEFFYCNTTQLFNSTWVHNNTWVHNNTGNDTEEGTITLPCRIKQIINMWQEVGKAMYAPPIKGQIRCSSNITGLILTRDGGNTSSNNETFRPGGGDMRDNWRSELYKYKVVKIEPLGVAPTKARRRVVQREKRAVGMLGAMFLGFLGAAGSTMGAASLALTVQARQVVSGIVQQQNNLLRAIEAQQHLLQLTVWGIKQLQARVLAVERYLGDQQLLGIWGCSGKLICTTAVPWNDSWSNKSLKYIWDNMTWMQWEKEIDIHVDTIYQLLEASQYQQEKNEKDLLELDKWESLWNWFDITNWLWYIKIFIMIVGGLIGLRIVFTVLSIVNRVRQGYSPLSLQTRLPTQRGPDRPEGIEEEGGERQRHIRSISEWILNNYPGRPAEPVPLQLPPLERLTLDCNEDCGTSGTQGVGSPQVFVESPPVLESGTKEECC

Row | Structure (SMILES) | IC50
1 | O=S(=O)(Nc1nc2ccccc2nc1Nc1cccc(S(=O)(=O)N2CCCCC2)c1)c1ccccc1 | 13.3 µM (active)
2 | COc1ccc(C(=O)/C=C/c2ccc(OCc3ccccc3)cc2)cc1CSCC(=O)O | 25.7 µM (active)
3 | Cc1cc(/C=C2/C(=N)N3C(=NC2=O)SN=C3S(C)(=O)=O)c(C)n1-c1ccccc1 | 19.1 µM (active)
